Where two headings read alike, the source gives them in different places.

As usually defined, the IC50 is the midpoint of a concentration-inhibition curve. What is called inhibition is the percentage by which the read-out fell short of the control.

Experiment [1] addresses c-Src (sarcoma) kinase (Homo sapiens, UniProt P12931). Conditions: cited from earlier work.
The subject of experiment [2] is PTH-induced bone resorption. Particulars: cited from earlier work.
The test system of experiment [3] is HL-60 (human leukaemia) cell line. In words: MTT cell proliferation assay, HL-60. Type of experiment: cell-based. Conditions: HL-60, MTT assay, 2 days, read-out: IC50, growth inhibition. The method, then:
(§1) Cancer assays were performed using MTT cell proliferation assays with three different immortalised cell lines: a human leukaemia cell line (HL-60), an ovarian cancer cell line (1A9) and a breast cancer cell line (MCF7).
(§2) HL-60, 1A9 and MCF cells were cultured at 37° C. in a 5% CO2 in air atmosphere in RPMI-1640 medium supplemented with 10% fetal calf serum, 100 units/mL penicillin, and 100 units/mL streptomycin (with 0.1% insulin added to the medium for 1A9 and MCF7 cell cultures). An MTT cell proliferation assay was used that involved the reduction of 3-(4,5-dimethylthiazol-2-yl)-2,5-diphenoyltetrazolium bromide (MTT) by viable cells as previously described.^14 Cells were treated with compounds of the invention in 96-well plates (duplicate wells) for 2 days (for HL-60) or 3 days (for 1A9 or MCF7), then incubated with 5 mg/mL MTT in phosphate-buffered saline for 2 h. The blue crystals that formed were solubilised in 10% sodium dodecyl sulfate, 45% dimethylformamide and the absorbance of the solutions measured at 570 nm in a multiwell plate reader (EnSpire™ 2300 Multiplate Reader from Perkin Elmer, Waltham, USA. The half-maximal inhibitory concentration (IC50) was calculated from a concentration-response curve using Sigma Plot software v8 (Systat Software Inc. Point Richmond, Calif.).
In general terms: Tetrazolium assays rely on reduction of a dye to a coloured formazan, in cell work by metabolically active cells.

Experiment [4] deals with MCF7 (breast cancer) cell line. Nature of the experiment: MTT cell proliferation assay, MCF7. Particulars: Homo sapiens, 72 h, 3 days, read-out: IC50, growth inhibition. It is filed as cell-based. The method, then: as §1, §2
Experiment [5] deals with AMPK A2/B1/G1 (Homo sapiens, UniProt P54646). Nature of the experiment: SelectScreen kinase profiling, Z'-LYTE protocol. Type of experiment: biochemical. The method, then:
(§3) Kinase inhibition assays were conducted by Life Technologies using their SelectScreen® Whole Panel ACCESS Biochemical Kinase Profiling Service. The Z'-LYTE® Screening Protocol was used to obtain the results for the following kinases: AMPK A2/B1/G1, BMX, BTK, MAPK14 (p38 alpha), PLK1, TXK. The LanthaScreen Protocol was used to obtain the result for the following kinase: NUAK2.
(§4) Compound 10 was assessed for kinase inhibition by Life Technologies using the SelectScreen® Whole Panel ACCESS Biochemical Kinase Profiling Service. The Z'-LYTE® Screening Protocol was used to obtain the results for the following kinases: AMPK A2/B1/G1, BMX, BTK, MAPK14 (p38 alpha), PLK1, TXK. The LanthaScreen Protocol was used to obtain the result for the following kinase: NUAK2.

The target of experiment [6] is T1, BMX (Homo sapiens, UniProt P51813).
T1 sequence (P51813 1-675): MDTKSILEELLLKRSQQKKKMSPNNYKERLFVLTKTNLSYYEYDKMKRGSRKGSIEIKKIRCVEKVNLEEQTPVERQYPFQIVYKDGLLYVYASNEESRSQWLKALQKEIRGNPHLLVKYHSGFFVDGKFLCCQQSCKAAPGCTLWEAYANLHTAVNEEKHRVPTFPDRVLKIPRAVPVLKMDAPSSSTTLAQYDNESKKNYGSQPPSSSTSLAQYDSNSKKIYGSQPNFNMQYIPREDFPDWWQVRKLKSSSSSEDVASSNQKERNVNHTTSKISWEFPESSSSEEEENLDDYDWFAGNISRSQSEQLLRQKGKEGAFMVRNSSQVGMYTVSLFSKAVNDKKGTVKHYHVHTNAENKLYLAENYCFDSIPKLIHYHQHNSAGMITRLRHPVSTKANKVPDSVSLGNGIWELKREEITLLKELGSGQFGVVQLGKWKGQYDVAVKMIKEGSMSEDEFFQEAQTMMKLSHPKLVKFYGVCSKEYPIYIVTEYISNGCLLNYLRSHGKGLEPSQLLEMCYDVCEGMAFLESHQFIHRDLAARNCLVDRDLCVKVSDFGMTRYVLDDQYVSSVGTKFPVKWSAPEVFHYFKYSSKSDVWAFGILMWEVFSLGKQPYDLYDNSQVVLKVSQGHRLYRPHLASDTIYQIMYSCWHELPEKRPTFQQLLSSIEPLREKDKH
Nature of the experiment: SelectScreen kinase profiling, Z'-LYTE protocol. Type of experiment: biochemical. The method, then: as §3, §4

For experiment [7], the target named is BTK (Bruton's tyrosine kinase) (Homo sapiens, UniProt Q06187). In words: SelectScreen kinase profiling, Z'-LYTE protocol. It is filed as biochemical. The method, then:
as §3, §4

For experiment [8], the target named is MAPK14 (p38 alpha) (Homo sapiens, UniProt Q16539). Nature of the experiment: SelectScreen kinase profiling, Z'-LYTE protocol. It is filed as biochemical. The method, then:
as §3, §4

Experiment [9] has as its target PLK1 (Homo sapiens, UniProt P53350). In words: SelectScreen kinase profiling, Z'-LYTE protocol. It is filed as biochemical. The method, then:
as §3, §4

Experiment [10] has as its target T2, TXK (Homo sapiens, UniProt P42681).
T2 sequence (P42681 1-527): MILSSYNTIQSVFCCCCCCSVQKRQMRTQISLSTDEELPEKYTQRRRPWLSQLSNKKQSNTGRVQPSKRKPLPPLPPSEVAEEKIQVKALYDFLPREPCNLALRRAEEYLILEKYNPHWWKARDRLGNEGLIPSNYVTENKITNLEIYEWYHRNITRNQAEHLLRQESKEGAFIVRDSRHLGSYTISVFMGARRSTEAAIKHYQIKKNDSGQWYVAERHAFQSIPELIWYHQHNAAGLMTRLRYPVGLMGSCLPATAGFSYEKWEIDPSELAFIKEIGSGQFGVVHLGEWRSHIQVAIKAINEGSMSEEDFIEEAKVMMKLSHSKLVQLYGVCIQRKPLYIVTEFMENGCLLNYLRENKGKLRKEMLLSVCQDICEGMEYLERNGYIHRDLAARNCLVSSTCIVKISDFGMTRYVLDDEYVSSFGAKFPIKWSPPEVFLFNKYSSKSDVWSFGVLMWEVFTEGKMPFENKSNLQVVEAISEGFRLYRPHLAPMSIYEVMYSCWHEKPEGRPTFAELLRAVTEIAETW
Nature of the experiment: SelectScreen kinase profiling, Z'-LYTE protocol. It is filed as biochemical. The method, then:
as §3, §4

The target in experiment [11] is T3, NUAK2 (Homo sapiens, UniProt Q9H093).
T3 sequence (Q9H093 1-628): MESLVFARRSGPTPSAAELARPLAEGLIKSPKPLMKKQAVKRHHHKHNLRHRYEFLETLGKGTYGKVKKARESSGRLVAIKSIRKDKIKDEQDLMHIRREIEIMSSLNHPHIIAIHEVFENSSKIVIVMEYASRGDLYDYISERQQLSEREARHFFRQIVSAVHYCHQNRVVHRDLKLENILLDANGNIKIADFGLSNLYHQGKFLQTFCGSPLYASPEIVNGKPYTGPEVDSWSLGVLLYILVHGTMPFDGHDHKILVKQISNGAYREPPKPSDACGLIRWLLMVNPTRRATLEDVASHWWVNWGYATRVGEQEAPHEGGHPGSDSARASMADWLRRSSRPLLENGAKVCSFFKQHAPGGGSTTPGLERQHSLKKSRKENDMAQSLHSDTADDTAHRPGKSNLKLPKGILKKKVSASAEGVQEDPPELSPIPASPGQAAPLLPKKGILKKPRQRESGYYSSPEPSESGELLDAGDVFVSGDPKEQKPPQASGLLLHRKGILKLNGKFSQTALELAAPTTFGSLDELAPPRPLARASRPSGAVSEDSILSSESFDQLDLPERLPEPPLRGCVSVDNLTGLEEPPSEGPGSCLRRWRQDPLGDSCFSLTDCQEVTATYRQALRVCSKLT
Nature of the experiment: SelectScreen kinase profiling, LanthaScreen protocol. It is filed as biochemical. The method, then:
as §3, §4
On the technique in general: In TR-FRET formats the signal depends on donor and acceptor labels being close together.

Experiment [12] deals with 1A9 (ovarian cancer) cell line. In words: MTT cell proliferation assay, 1A9. It is filed as cell-based. Particulars: 1A9, MTT assay, 3 days; read-out: IC50, growth inhibition. The method, then: as §1, §2
The mark [13] stands for this setting: read-out: Inhibition (IC50 at 10 μM).
Where [14] appears, read: single-point, read-out: percent inhibition.

Sequence of MAPK14 (p38 alpha) (Q16539 whole entry): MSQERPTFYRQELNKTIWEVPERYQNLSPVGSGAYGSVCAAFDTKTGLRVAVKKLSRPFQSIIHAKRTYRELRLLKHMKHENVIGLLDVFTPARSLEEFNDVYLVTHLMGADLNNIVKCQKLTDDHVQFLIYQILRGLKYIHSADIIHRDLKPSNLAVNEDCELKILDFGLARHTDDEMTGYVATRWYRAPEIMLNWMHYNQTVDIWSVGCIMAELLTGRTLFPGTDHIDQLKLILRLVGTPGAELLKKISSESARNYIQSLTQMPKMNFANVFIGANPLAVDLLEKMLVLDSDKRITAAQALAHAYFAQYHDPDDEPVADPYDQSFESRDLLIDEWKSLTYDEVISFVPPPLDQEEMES
Sequence of AMPK A2/B1/G1 (P54646 whole entry): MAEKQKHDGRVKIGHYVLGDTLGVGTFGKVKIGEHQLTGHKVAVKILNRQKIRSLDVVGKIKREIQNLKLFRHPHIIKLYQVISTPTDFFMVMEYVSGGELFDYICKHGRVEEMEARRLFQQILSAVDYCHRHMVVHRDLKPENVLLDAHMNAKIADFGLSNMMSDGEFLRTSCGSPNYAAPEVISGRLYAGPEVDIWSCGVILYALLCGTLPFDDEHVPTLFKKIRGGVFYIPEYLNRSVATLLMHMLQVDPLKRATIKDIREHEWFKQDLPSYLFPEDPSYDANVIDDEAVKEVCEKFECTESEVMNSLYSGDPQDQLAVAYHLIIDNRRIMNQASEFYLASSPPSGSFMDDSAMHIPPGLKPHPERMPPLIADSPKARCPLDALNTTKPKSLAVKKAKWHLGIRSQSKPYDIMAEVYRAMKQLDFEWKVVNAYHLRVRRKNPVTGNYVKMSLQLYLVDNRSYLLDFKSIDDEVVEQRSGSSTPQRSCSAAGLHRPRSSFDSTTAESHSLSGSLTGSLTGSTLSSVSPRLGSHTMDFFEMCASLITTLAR
Sequence of AMPK A2/B1/G1 (Q9Y478 whole entry partner): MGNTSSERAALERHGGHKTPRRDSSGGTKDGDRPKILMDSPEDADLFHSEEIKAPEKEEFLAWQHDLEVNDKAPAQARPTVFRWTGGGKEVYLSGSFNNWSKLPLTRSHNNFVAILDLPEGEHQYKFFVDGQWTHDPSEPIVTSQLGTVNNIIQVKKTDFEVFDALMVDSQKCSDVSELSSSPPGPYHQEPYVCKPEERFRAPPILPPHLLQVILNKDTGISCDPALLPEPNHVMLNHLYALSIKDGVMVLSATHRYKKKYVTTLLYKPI
Sequence of AMPK A2/B1/G1 (P54619 whole entry partner): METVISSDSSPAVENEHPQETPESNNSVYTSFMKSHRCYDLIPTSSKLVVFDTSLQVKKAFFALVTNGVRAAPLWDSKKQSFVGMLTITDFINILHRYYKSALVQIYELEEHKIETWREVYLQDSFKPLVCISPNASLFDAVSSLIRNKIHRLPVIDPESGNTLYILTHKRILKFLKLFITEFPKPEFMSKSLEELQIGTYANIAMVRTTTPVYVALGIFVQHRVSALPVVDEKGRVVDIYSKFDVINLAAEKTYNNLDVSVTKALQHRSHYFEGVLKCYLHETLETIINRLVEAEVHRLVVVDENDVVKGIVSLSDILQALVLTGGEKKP
Sequence of BTK (Bruton's tyrosine kinase) (Q06187 whole entry): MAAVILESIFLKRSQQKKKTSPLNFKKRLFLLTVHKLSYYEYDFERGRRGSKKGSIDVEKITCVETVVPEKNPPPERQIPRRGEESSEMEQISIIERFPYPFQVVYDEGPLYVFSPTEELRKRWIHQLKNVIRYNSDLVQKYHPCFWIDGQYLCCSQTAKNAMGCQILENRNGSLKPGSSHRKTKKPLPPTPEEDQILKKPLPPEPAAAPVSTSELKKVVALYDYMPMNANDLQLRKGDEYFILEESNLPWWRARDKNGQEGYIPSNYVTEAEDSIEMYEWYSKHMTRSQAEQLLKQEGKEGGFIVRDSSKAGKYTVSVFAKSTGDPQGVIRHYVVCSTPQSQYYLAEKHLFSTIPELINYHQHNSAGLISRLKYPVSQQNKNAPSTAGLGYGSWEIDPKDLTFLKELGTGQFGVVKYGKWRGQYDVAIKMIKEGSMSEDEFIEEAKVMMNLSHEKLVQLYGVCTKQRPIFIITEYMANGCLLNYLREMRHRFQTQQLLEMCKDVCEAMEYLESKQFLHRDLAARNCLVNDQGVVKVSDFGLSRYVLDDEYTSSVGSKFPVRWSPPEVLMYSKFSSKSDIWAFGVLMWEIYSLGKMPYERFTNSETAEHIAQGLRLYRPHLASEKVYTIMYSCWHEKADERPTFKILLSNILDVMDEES
Sequence of PLK1 (P53350 whole entry): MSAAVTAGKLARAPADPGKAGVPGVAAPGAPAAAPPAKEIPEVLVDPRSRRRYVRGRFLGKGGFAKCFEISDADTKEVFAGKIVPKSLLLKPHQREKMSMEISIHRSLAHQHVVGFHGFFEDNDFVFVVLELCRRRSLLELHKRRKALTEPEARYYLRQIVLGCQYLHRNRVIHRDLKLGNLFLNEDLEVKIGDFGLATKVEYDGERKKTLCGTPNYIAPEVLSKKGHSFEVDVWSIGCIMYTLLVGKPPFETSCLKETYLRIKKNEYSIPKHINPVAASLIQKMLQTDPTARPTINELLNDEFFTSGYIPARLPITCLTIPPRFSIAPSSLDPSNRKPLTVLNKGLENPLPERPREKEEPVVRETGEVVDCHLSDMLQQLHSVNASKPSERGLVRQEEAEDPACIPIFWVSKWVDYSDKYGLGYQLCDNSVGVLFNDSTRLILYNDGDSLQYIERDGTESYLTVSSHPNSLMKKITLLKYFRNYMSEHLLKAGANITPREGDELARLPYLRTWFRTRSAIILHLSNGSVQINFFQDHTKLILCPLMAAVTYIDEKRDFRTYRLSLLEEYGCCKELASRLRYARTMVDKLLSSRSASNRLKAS
Sequence of c-Src (sarcoma) kinase (P12931 whole entry): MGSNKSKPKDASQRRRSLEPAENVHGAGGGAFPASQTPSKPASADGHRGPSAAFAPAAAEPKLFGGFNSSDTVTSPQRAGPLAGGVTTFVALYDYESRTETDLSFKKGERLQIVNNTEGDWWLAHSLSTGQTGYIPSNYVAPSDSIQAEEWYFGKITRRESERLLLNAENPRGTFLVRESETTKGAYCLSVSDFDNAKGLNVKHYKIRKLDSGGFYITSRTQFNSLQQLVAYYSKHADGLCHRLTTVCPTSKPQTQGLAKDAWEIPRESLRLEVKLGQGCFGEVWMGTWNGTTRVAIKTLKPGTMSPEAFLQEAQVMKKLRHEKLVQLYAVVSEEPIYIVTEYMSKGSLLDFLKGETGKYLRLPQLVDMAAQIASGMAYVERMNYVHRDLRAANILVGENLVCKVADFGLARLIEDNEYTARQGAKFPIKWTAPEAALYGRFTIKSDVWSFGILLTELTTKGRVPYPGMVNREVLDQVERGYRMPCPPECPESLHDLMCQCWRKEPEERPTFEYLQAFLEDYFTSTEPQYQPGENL

Consider `C/C=C/[C@H]1O[C@@H]2C(=C[C@H]1O)C(=O)O[C@H]2C` [(−)-TAN-2483A], for which the “inhibition of c-Src (sarcoma) kinase” value in experiment [1] was “inhibition”. The “inhibition of PTH-induced bone resorption” value in experiment [2] is on record as “inhibition”.
As for `C/C=C/[C@H]1O[C@H]2C(=C[C@H]1O)C(=O)O[C@H]2C` [(−)-TAN-2483B], the “inhibition of c-Src (sarcoma) kinase” value in experiment [1] is “inhibition”. Besides, the “inhibition of PTH-induced bone resorption” value in experiment [2] is on record as “inhibition”.
In the case of `CCOC(=O)/C=C\[C@H]1O[C@H]2C(=C[C@H]1O)C(=O)O[C@H]2C` [Compound 10, (−)-TAN-2483B Z-ethyl ester], the half-inhibitory concentration (IC50) was 3.6 µM in experiment [3] (Homo sapiens, 48 h) and 9 µM in [4]. Moreover, the inhibition at 10 µM in experiment [5] (AMPK A2/B1/G1, at 10 μM, read-out: Inhibition (IC50 at 10 μM)) was 81%; in [5] (AMPK A2/B1/G1, single-point, at 10 μM, read-out: percent inhibition) it was 81%; in experiment [6] (setting [13]), 80%; in [6] (setting [14]), 80%; in [7] (setting [13]), 83%; in experiment [7] (setting [14]) it was 83%. Also, the inhibition at 10 µM in experiment [8] (MAPK14 (p38 alpha), single-point, at 10 μM, read-out: percent inhibition) is 74%; in [8] (MAPK14, at 10 μM, read-out: Inhibition (IC50 at 10 μM)), 74%; in experiment [9] (PLK1, at 10 μM, read-out: Inhibition (IC50 at 10 μM)) it was 81%; in experiment [9] (PLK1, single-point, at 10 μM, read-out: percent inhibition), 81%; in experiment [10] (TXK1, at 10 μM, read-out: Inhibition (IC50 at 10 μM)) it was 71%; in [10] (TXK, single-point, at 10 μM, read-out: percent inhibition) it was 71%. Also, the inhibition at 10 µM in experiment [11] (NUAK2, at 10 μM, read-out: Inhibition (IC50 at 10 μM)) was found to be 76%; in experiment [11] (NUAK2, single-point, at 10 μM, read-out: percent inhibition), 76%.
For `C[C@@H]1OC(=O)C2=C[C@@H](O)[C@@H](/C=C/CO)O[C@@H]21` [Compound 19, Hydroxy-TAN-2483B], in experiment [3] (Homo sapiens, 48 h), the 50% inhibitory concentration (IC50) stood at 42 µM.
Consider “(−)-TAN-2483B E-ethyl ester [Compound 14]”, for which the figures for the IC50 in [3] and in experiment [12] were 2.2 µM and 3.4 µM, respectively.
